From patent US6995143B2, “Macrolides with antibacterial activity” (Basilea Pharmaceutica AG, priority 2002, dated 2006)
≈ marks a conversion by molar mass, not a printed value.

What was measured:
Assay type in all cases: cell-based
[1] = test system: Haemophilus influenzae QK50; assay: MIC, standard agar dilution method using HTM medium
Procedure, shortened: (§1)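 NCCLS M7-A5 dilution protocol for aerobic bacteria; H. influenzae strains; MIC read per that standard.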

[2] = test system: Haemophilus influenzae QK12/87; assay: as above
Procedure, shortened: as §1

[3] = test system: Haemophilus influenzae B1501; assay: as above
Procedure, shortened: as §1

[4] = test system: Haemophilus influenzae 12214; assay: as above
Procedure, shortened: as §1

[5] = test system: Streptococcus pneumoniae SL199T; assay: MIC, standard microdilution technique
Procedure, shortened: (§2)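 NCCLS M7-A5 dilution protocol for aerobic bacteria; MIC read per that approved standard.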

[6] = test system: Streptococcus pneumoniae ¼; assay: MIC, standard microdilution technique
Procedure, shortened: as §2

[7] = test system: Staphylococcus aureus ATCC 29213; assay: MIC, standard microdilution technique
Procedure, shortened: as §2

[8] = test system: Streptococcus pneumoniae 12288; assay: MIC, standard microdilution technique
Procedure, shortened: as §2

[9] = test system: Escherichia coli ATCC 25922; assay: MIC, standard microdilution technique
Procedure, shortened: as §2

[10] = test system: Staphylococcus aureus 745; assay: MIC, standard microdilution technique
Procedure, shortened: as §2

[11] = test system: Streptococcus pneumoniae l/l; assay: MIC, standard microdilution technique
Procedure, shortened: as §2

[12] = test system: Staphylococcus aureus 1086; assay: MIC, standard microdilution technique
Procedure, shortened: as §2

minimum inhibitory concentration (MIC), Strain L [1] [µg/mL] | minimum inhibitory concentration (MIC), Strain I [2] [µg/mL] | minimum inhibitory concentration (MIC), Strain M [3] [µg/mL] | minimum inhibitory concentration (MIC), Strain K [4] [µg/mL] | minimum inhibitory concentration (MIC), Strain G [5] [µg/mL] | minimum inhibitory concentration (MIC), Strain F [6] [µg/mL] | minimum inhibitory concentration (MIC), Strain A [7] | minimum inhibitory concentration (MIC), Strain H [8] [µg/mL] | minimum inhibitory concentration (MIC), Strain D [9] [µg/mL] | minimum inhibitory concentration (MIC), Strain C [10] [µg/mL] | minimum inhibitory concentration (MIC), Strain E [11] | minimum inhibitory concentration (MIC), Strain B [12] | Molecule
1 (≈ 1.24 µM) | 1 (≈ 1.24 µM) | 2 (≈ 2.48 µM) | 4 (≈ 4.97 µM) | 0.5 (≈ 0.621 µM) | 0.125 (≈ 0.155 µM) | 1 µg/mL (≈ 1.24 µM) | 8 (≈ 9.94 µM) | 32 (≈ 39.8 µM) | >32 | <=0.06 μg/ml | 1 µg/mL (≈ 1.24 µM) | CC[C@H]1OC(=O)[C@H](C)C(=O)[C@H](C)[C@@H](O[C@@H]2O[C@H](C)C[C@H](N(C)C)[C@H]2O)[C@](C)(OC)C[C@@H](C)C(=O)[C@H](C)[C@H]2[C@@H](SCCNc3ncnc4[nH]cnc34)C(=O)O[C@@]21C [Example 51]
>32 | >32 | >32 | >32 | >32 | >32 | 16 µg/mL (≈ 19.2 µM) | >32 | >32 | >32 | 1 µg/mL (≈ 1.2 µM) | 8 µg/mL (≈ 9.6 µM) | CC[C@H]1OC(=O)[C@H](C)C(=O)[C@H](C)[C@@H](O[C@@H]2O[C@H](C)C[C@H](N(C)C)[C@H]2O)[C@](C)(OC)C[C@@H](C)C(=O)[C@H](C)[C@H]2[C@@H](SCC(=O)c3ccc(N(CC)CC)cc3)C(=O)O[C@@]21C [Example 17]
8 (≈ 10.2 µM) | 8 (≈ 10.2 µM) | 8 (≈ 10.2 µM) | 8 (≈ 10.2 µM) | 32 (≈ 41 µM) | >32 | 0.5 µg/mL (≈ 0.64 µM) | >32 | >32 | >32 | <=0.06 μg/ml | 0.25 µg/mL (≈ 0.32 µM) | CC[C@H]1OC(=O)[C@H](C)C(=O)[C@H](C)[C@@H](O[C@@H]2O[C@H](C)C[C@H](N(C)C)[C@H]2O)[C@](C)(OC)C[C@@H](C)C(=O)[C@H](C)[C@H]2[C@@H](SCC(=O)NCc3ccco3)C(=O)O[C@@]21C [Example 31]
>32 | 32 (≈ 38 µM) | 32 (≈ 38 µM) | >32 | 32 (≈ 38 µM) | >32 | 2 µg/mL (≈ 2.38 µM) | >32 | >32 | >32 | <=0.06 μg/ml | 1 µg/mL (≈ 1.19 µM) | CC[C@H]1OC(=O)[C@H](C)C(=O)[C@H](C)[C@@H](O[C@@H]2O[C@H](C)C[C@H](N(C)C)[C@H]2O)[C@](C)(OC)C[C@@H](C)C(=O)[C@H](C)[C@H]2[C@@H](SCCS(=O)(=O)NCc3ccccc3)C(=O)O[C@@]21C [Example 24]
8 (≈ 8.81 µM) | 8 (≈ 8.81 µM) | 8 (≈ 8.81 µM) | 16 (≈ 17.6 µM) | 4 (≈ 4.41 µM) | 0.125 (≈ 0.138 µM) | 0.125 µg/mL (≈ 0.138 µM) | 8 (≈ 8.81 µM) | >32 | >32 | <=0.06 μg/ml | <=0.06 μg/ml | CC[C@H]1OC(=O)[C@H](C)C(=O)[C@H](C)[C@@H](O[C@@H]2O[C@H](C)C[C@H](N(C)C)[C@H]2O)[C@](C)(OC)C[C@@H](C)C(=O)[C@H](C)[C@H]2[C@@H](SCCNc3nc(C)nc4ccc(Br)cc34)C(=O)O[C@@]21C [Example 52]
16 (≈ 19.3 µM) | 8 (≈ 9.66 µM) | 8 (≈ 9.66 µM) | 16 (≈ 19.3 µM) | 8 (≈ 9.66 µM) | 4 (≈ 4.83 µM) | <=0.06 μg/ml | 32 (≈ 38.6 µM) | >32 | >32 | <=0.06 μg/ml | <=0.06 μg/ml | CC[C@H]1OC(=O)[C@H](C)C(=O)[C@H](C)[C@@H](O[C@@H]2O[C@H](C)C[C@H](N(C)C)[C@H]2O)[C@](C)(OC)C[C@@H](C)C(=O)[C@H](C)[C@H]2[C@@H](SCC(=O)Nc3ccc4ncccc4c3)C(=O)O[C@@]21C [Example 38]
16 (≈ 19.2 µM) | 16 (≈ 19.2 µM) | 8 (≈ 9.58 µM) | 16 (≈ 19.2 µM) | 16 (≈ 19.2 µM) | 32 (≈ 38.3 µM) | 0.125 µg/mL (≈ 0.15 µM) | >32 | >32 | >32 | <=0.06 μg/ml | <=0.06 μg/ml | CC[C@H]1OC(=O)[C@H](C)C(=O)[C@H](C)[C@@H](O[C@@H]2O[C@H](C)C[C@H](N(C)C)[C@H]2O)[C@](C)(OC)C[C@@H](C)C(=O)[C@H](C)[C@H]2[C@@H](SCC(=O)NCc3ccc4c(c3)OCO4)C(=O)O[C@@]21C [Example 30]
16 (≈ 20.5 µM) | 16 (≈ 20.5 µM) | 16 (≈ 20.5 µM) | 32 (≈ 41 µM) | 16 (≈ 20.5 µM) | >32 | 8 µg/mL (≈ 10.2 µM) | >32 | >32 | >32 | <=0.06 μg/ml | 8 µg/mL (≈ 10.2 µM) | CC[C@H]1OC(=O)[C@H](C)C(=O)[C@H](C)[C@@H](O[C@@H]2O[C@H](C)C[C@H](N(C)C)[C@H]2O)[C@](C)(OC)C[C@@H](C)C(=O)[C@H](C)[C@H]2[C@@H](SCC(=O)NCc3ncc[nH]3)C(=O)O[C@@]21C [Example 35]

Molecule | minimum inhibitory concentration (MIC), Strain L [1] [µg/mL] | minimum inhibitory concentration (MIC), Strain I [2] [µg/mL] | minimum inhibitory concentration (MIC), Strain M [3] [µg/mL] | minimum inhibitory concentration (MIC), Strain K [4] [µg/mL] | minimum inhibitory concentration (MIC), Strain G [5] [µg/mL] | minimum inhibitory concentration (MIC), Strain F [6] [µg/mL] | minimum inhibitory concentration (MIC), Strain A [7] | minimum inhibitory concentration (MIC), Strain H [8] [µg/mL] | minimum inhibitory concentration (MIC), Strain D [9] [µg/mL] | minimum inhibitory concentration (MIC), Strain C [10] [µg/mL] | minimum inhibitory concentration (MIC), Strain E [11] | minimum inhibitory concentration (MIC), Strain B [12]
(3R or S, 3aS, 4R or S, 6R, 8R, 9R, 10R, 12R, 15R, 15aS) -15-Ethylhexadecahydro-4,6,8,10,12,15a-hexamethyl-2,5,11,13-tetraoxo-8-[[(2E)-3-(3-quinolyl)-2-propen-1-yl]oxy]-9-[[3,4,6-trideoxy-3-(dimethylamino)-β-D-xylo-hexopyranosyl]oxy]-2H-furo [2,3-c] oxacyclotetradecin-3-carbonitrile [Example 15] | 2 | 4 | 2 | 4 | 2 | 0.25 | <=0.06 μg/ml | 16 | >32 | 32 | <=0.06 μg/ml | <=0.06 μg/ml
CC[C@H]1OC(=O)[C@H](C)C(=O)[C@H](C)[C@@H](O[C@@H]2O[C@H](C)C[C@H](N(C)C)[C@H]2O)[C@](C)(OC)C[C@@H](C)C(=O)[C@H](C)[C@H]2[C@@H](SCC(=O)OC)C(=O)O[C@@]21C (single isomer, unassigned) [Example 5] | 32 (≈ 44.7 µM) | 32 (≈ 44.7 µM) | 16 (≈ 22.3 µM) | 32 (≈ 44.7 µM) | >32 | >32 | 1 µg/mL (≈ 1.4 µM) | >32 | >32 | >32 | 0.125 µg/mL (≈ 0.175 µM) | 1 µg/mL (≈ 1.4 µM)
